From article PMC10648349, “Aromatic Diboronic Acids as Effective KPC/AmpC Inhibitors” (Molecules, 2023)
≈ marks a conversion by molar mass, not a printed value. Blank lines part the entries; values can stand above or below the compound they belong to.

Key:
[1] = system: K. pneumoniae ATCC BAA 1705 KPC-2-positive; experiment: combination disc test CDT-KPC; assay type: cell-based; conditions: Klebsiella pneumoniae, BAA1705; agent 0.3 mg per disc; read-out: Diameter of inhibition zone, MEM-10 disc with agent
[2] = system: E. faecium ATCC 6057; experiment: direct antimicrobial activity (disc-diffusion, MIC, MBC); assay type: cell-based; conditions: Enterococcus faecium, ATCC6057; for zone of inhibition at 0.4 mg/disc: 0.4 mg per disc, 9 mm disc (linezolid 0.03 mg, 6 mm disc), - no zone, read-out: Diameter of inhibition zone
In short: (§1)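 Diboronic acids (DMSO solutions) at 0.4 mg per disc were used for diffusion testing. Dilution endpoints were MIC, MBC and MFC, per CLSI and EUCAST recommendations.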

[3] = system: S. epidermidis ATCC 12228; experiment: as above; assay type: cell-based; conditions: Staphylococcus epidermidis, ATCC12228; for zone of inhibition at 0.4 mg/disc: 0.4 mg per disc, 9 mm disc (linezolid 0.03 mg, 6 mm disc), - no zone, read-out: Diameter of inhibition zone
In short: as §1

[4] = system: S. cerevisiae ATCC 9763; experiment: antifungal activity (disc-diffusion, MIC, MFC); assay type: cell-based; conditions: Saccharomyces cerevisiae, ATCC9763; for MIC: fluconazole by Etest; for zone of inhibition at 0.4 mg/disc: 0.4 mg per disc, 9 mm disc (fluconazole 0.025 mg, 6 mm disc), - no zone, read-out: Diameter of inhibition zone
In short: as §1

[5] = system: C. tropicalis ATCC 750; experiment: antifungal activity (disc-diffusion, MIC, MFC); assay type: cell-based; conditions: Candida tropicalis, ATCC750; for MIC: fluconazole by Etest; for zone of inhibition at 0.4 mg/disc: 0.4 mg per disc, 9 mm disc (fluconazole 0.025 mg, 6 mm disc), - no zone, read-out: Diameter of inhibition zone
In short: as §1

[6] = system: C. tropicalis IBA 171; experiment: antifungal activity (disc-diffusion, MIC, MFC); assay type: cell-based; conditions: Candida tropicalis, IBA171; for MIC: fluconazole by Etest
In short: as §1

[7] = system: C. albicans ATCC 90028; experiment: antifungal activity (disc-diffusion, MIC, MFC); assay type: cell-based; conditions: Candida albicans, ATCC90028; for MIC: fluconazole by Etest
In short: as §1

[8] = system: E. coli 77 CMY-2-positive; experiment: checkerboard microdilution, antibiotic plus tested agent; assay type: cell-based, Escherichia coli
In short: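 β-lactam 1–64 mg/L × agent/PBA 4–16 mg/L checkerboard; meropenem vs carbapenemase producers, ceftazidime vs AmpC producer; imipenem, ertapenem added for selected agents. Readout: combination MICs, FICI (average and lowest); off-scale MICs taken as next doubling.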

[9] = system: K. pneumoniae ATCC BAA-1705 KPC-2-positive; experiment: as above; assay type: cell-based, Klebsiella pneumoniae
In short: (§2)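 Chequerboard layout: tested agent in three two-fold steps (4–16 mg/L) crossed with seven β-lactam dilutions (1–64 mg/L), meropenem for KPC strains and ceftazidime for the cAmpC strain. FICI from first non-growth wells, off-scale MICs raised one doubling; ≤0.5 counts as synergy, >4 antagonism.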

[10] = system: K. pneumoniae 83 KPC-3-positive, CTX-M-3-positive; experiment: as above; assay type: cell-based, Klebsiella pneumoniae
In short: as §2

[11] = system: K. pneumoniae 81 KPC-3-positive; experiment: as above; assay type: cell-based, Klebsiella pneumoniae
In short: as §2

[12] = system: E. coli 76 KPC-2-positive; experiment: as above; assay type: cell-based, Escherichia coli
In short: as §2

Structure (SMILES): OB(O)c1cc(C(F)(F)F)cc(B(O)O)c1F [2e]
zone of inhibition at 300 µg/disc [1]: 6 mm
MIC [2]: 100 µg/mL (≈ 397 µM)
zone of inhibition at 0.4 mg/disc [2]: 18 mm
MIC [3]: 0.78 µg/mL (≈ 3.1 µM)
zone of inhibition at 0.4 mg/disc [3]: 35 mm
MIC [4]: > 400 µg/mL
MIC [5]: > 400 µg/mL
MIC [6]: 400 µg/mL (≈ 1590 µM)
MIC [7]: 400 µg/mL (≈ 1590 µM)

MIC [2]: > 400 µg/mL
MIC [3]: 400 µg/mL (≈ 2180 µM)
MIC [4]: 100 µg/mL (≈ 544 µM)
MIC [5]: 200 µg/mL (≈ 1090 µM)
MIC [6]: 200 µg/mL (≈ 1090 µM)
MIC [7]: 400 µg/mL (≈ 2180 µM)
Structure (SMILES): OB(O)c1cccc(F)c1B(O)O [3b]
zone of inhibition at 300 µg/disc [1]: 14 mm
zone of inhibition at 0.4 mg/disc [3]: 21 mm
Average FICI with ceftazidime [8]: 0.43
The lowest FICI with ceftazidime [8]: 0.27
zone of inhibition at 0.4 mg/disc [4]: 13 mm

MIC [2]: 400 µg/mL (≈ 2180 µM)
MIC [3]: 100 µg/mL (≈ 544 µM)
MIC [4]: 100 µg/mL (≈ 544 µM)
MIC [5]: 50 µg/mL (≈ 272 µM)
MIC [6]: 50 µg/mL (≈ 272 µM)
MIC [7]: 100 µg/mL (≈ 544 µM)
Structure (SMILES): OB(O)c1ccc(F)cc1B(O)O [3c]
Average FICI with ERT [9]: 0.43
Average FICI with IMI [9]: 0.35
Average FICI with MEM [9]: 0.51
The lowest FICI with ERT [9]: 0.27
The lowest FICI with IMI [9]: 0.26
The lowest FICI with MEM [9]: 0.51
Average FICI with ERT [10]: 0.43
Average FICI with IMI [10]: 0.35
Average FICI with MEM [10]: 0.22
The lowest FICI with ERT [10]: 0.27
The lowest FICI with IMI [10]: 0.26
The lowest FICI with MEM [10]: 0.15
Average FICI with ERT [11]: 0.22
Average FICI with IMI [11]: 0.18
Average FICI with MEM [11]: 0.18
The lowest FICI with ERT [11]: 0.15
The lowest FICI with IMI [11]: 0.14
The lowest FICI with MEM [11]: 0.14
zone of inhibition at 300 µg/disc [1]: 12 mm
zone of inhibition at 0.4 mg/disc [2]: 12 mm
zone of inhibition at 0.4 mg/disc [3]: 24 mm
Average FICI with ERT [12]: 0.43
Average FICI with IMI [12]: 0.22
Average FICI with MEM [12]: 0.43
The lowest FICI with ERT [12]: 0.27
The lowest FICI with IMI [12]: 0.15
The lowest FICI with MEM [12]: 0.27

Structure (SMILES): OB(O)c1ccc(C(F)(F)F)cc1B(O)O [3e]
zone of inhibition at 300 µg/disc [1]: 6 mm
MIC [2]: 200 µg/mL (≈ 856 µM)
zone of inhibition at 0.4 mg/disc [2]: 13 mm
MIC [3]: 200 µg/mL (≈ 856 µM)
zone of inhibition at 0.4 mg/disc [3]: 21 mm
zone of inhibition at 0.4 mg/disc [4]: 23 mm
MIC [4]: 50 µg/mL (≈ 214 µM)
zone of inhibition at 0.4 mg/disc [5]: 28 mm
MIC [5]: 12.5 µg/mL (≈ 53.5 µM)
MFC [6]: 400 µg/mL (≈ 1710 µM)
MIC [6]: 6.25 µg/mL (≈ 26.7 µM)
MFC [7]: 400 µg/mL (≈ 1710 µM)
MIC [7]: 6.25 µg/mL (≈ 26.7 µM)

MIC [2]: 200 µg/mL (≈ 954 µM)
MIC [3]: 200 µg/mL (≈ 954 µM)
MIC [4]: > 400 µg/mL
MIC [5]: > 400 µg/mL
MIC [6]: > 400 µg/mL
MIC [7]: > 400 µg/mL
Structure (SMILES): OB(O)c1ccc(B(O)O)c(B(O)O)c1 [4b, benzene-1,2,4-triboronic]
zone of inhibition at 300 µg/disc [1]: 14 mm
zone of inhibition at 0.4 mg/disc [3]: 20 mm
Average FICI with ceftazidime [8]: 0.43
The lowest FICI with ceftazidime [8]: 0.27

MIC [2]: > 400 µg/mL
MIC [3]: 400 µg/mL (≈ 2330 µM)
MIC [4]: > 400 µg/mL
MIC [5]: > 400 µg/mL
MIC [6]: > 400 µg/mL
MIC [7]: 400 µg/mL (≈ 2330 µM)
Structure (SMILES): OB(O)c1ccsc1B(O)O [5a, thiophene-2,3-diboronic acid]
zone of inhibition at 300 µg/disc [1]: 15 mm
zone of inhibition at 0.4 mg/disc [3]: 13 mm
Average FICI with ceftazidime [8]: 0.43
The lowest FICI with ceftazidime [8]: 0.27

MIC [2]: 12.5 µg/mL (≈ 81.2 µM)
MIC [3]: 12.5 µg/mL (≈ 81.2 µM)
MIC [4]: 12.5 µg/mL (≈ 81.2 µM)
MIC [5]: 50 µg/mL (≈ 325 µM)
MIC [6]: 12.5 µg/mL (≈ 81.2 µM)
MIC [7]: 50 µg/mL (≈ 325 µM)
Structure (SMILES): OB(O)c1ccccc1S [7c, 2-mercaptophenylboronic acid]
zone of inhibition at 300 µg/disc [1]: 13 mm
zone of inhibition at 0.4 mg/disc [2]: 25 mm
zone of inhibition at 0.4 mg/disc [3]: 30 mm
MFC [4]: 25 µg/mL (≈ 162 µM)
zone of inhibition at 0.4 mg/disc [4]: 34 mm
MFC [5]: 200 µg/mL (≈ 1300 µM)
zone of inhibition at 0.4 mg/disc [5]: 20 mm
MFC [6]: 100 µg/mL (≈ 649 µM)
MFC [7]: 200 µg/mL (≈ 1300 µM)
zone of inhibition at 0.4 mg/disc ([7]; 0.4 mg per disc, 9 mm disc (fluconazole 0.025 mg, 6 mm disc), - no zone, read-out: Diameter of inhibition zone): 33 mm
